According to patent US20040029153A1, “Method for estimating metabolic function of xenobiotic and induction thereof” (priority 2000, published 2004):
Where two headings read alike, the source gives them in different places.

Tests used:
CYP1A = assay: Induction of ethoxyresorfin dealkylation activity in primary human hepatocytes; format: in vitro ADME; details: HH-110
Experimental: After the culture medium was completely removed from the culture plate, Lanford's medium (1 mL) containing 8 μmol/L of 7-ethoxyresorfin and 10 μmol/L of dicumarol was added to each well, and the plate was incubated for 30 minutes in the CO2 incubator to allow reaction. Whole volume of each reaction was recovered and stored at −80° C. until measurement. The cells were washed twice with Lanford's medium, and maintained in the CO2 incubator again or directly used as a sample for another test.
The stored reactions were thawed, and accurately 75 μL of each reaction was removed and mixed with 0.1 mol/L of acetate-sodium acetate buffer (pH 4.4, 25 μL) containing 15 Fishman units of β-glucuronidase [EC 3.2.1.31] and 120 Roy units of sulfatase [EC 3.1.6.1], followed by conjugation reaction for two hours at 37° C. Ethanol (200 μL) was added to the reaction and subjected to centrifugation. The supernatant (200 μL) was transferred to a 96-well microtiter plate. Microplate reader (Labsystems, Fluoroscan Ascent) was used to measure the fluorescence intensity at the wavelength of 590 nm when excited with excitation light at the wavelength of 544 nm. The resorfin production figured out from the result was used to measure the ethoxyresorfin dealkylation activity.
The cells maintained under the conditions considered optimal in Examples 8 and 9 were continued to be added with 1 μmol/L of 3-methylcholanthrene for three days, and the changes in ethoxyresorfin dealkylation activity was investigated. HH-110 cells were used.
Primary human hepatocytes (HH-110) were continued to be loaded with 1 μmol/L of 3-methylcholanthrene for three days between days 4th to 7th post seeding (indicated by a crossbar in the figure), and these cells had been maintained further for five days again in the conventional Lanford's medium. During this period, measurement of ethoxyresorfin dealkylation activity was conducted at 8 times to investigate the changes in the activity. Three samples per condition were measured independently, and the mean values are shown. The standard deviations are indicated by error bar. […]

[1] = test system: primary human hepatocytes; assay: Ethoxycoumarin dealkylation and coumarin conjugation activities in primary human hepatocytes; format: in vitro ADME; details: HH-110 and HH-118; benz[a]anthracene 5 μmol/L, 3-methylcholanthrene 2 μmol/L; one day and night
Experimental: Lanford's medium (1 mL) containing 75 μmol/L of 7-ethoxycoumarin was added to each well after the culture medium was removed, and the plate was incubated for two hours in the CO2 incubator to allow reaction. Whole volume of each reaction was recovered and stored at −80° C. until measurement. The cells were washed twice with Lanford's medium, and maintained in the CO2 incubator again or directly used as a sample for another test. The stored reactions were thawed, and 50 μl of the reaction was analyzed by liquid chromatography, ethoxycoumarin dealkylation activity and glucuronate and sulfate conjugation activities were comprehensively estimated based on the production of 7-hydroxycoumarin, 7-hydroxycoumarin glucuronide and 7-hydroxycoumarin sulfate. Herein, 7-ethoxycoumarin is converted to 7-hydroxycoumarin after dealkylation, and then conjugated by glucuronate and sulfate.
The cells maintained under the conditions considered optimal in Examples 8 and 9 were continued to be added with 5 μmol/L of benz[a]anthracene or 2 μmol/L of 3-methylcholanthrene one day and night, and then the changes in ethoxycoumarin dealkylation activity was investigated. HH-110 and HH-118 cells were used.
Three samples per each condition i.e., control (Lane 1), adding of 3-methylcholanthrene (Lane 2) and benz[a]anthracene (Lane 3) which were measured independently, and the mean values are shown. […]

CYP1A1/2 = assay: Western blotting of CYP1A protein in cryopreserved primary human hepatocytes; details: HH-110 and HH-118; 3-methylcholanthrene 2 μmol/L, benz[a]anthracene 5 μmol/L; one day and night; vs control
CYP3A mRNA = details: hepatocytes
CYP3A = assay: Induction of testosterone hydroxylation activity in primary human hepatocytes
[2] = test system: primary human hepatocytes; assay: Effect of culture medium components on rifampicin induction of testosterone hydroxylation activity; format: cell-based
CYP3A4 = test system: CYP3A4
Experimental: The cells in the suspension were seeded in a 12-well culture plate coated with collagen at the density of 6×10^5 cells/well, and the plate was incubated one day and night in the CO2 incubator. Subsequently, the culture medium containing 10% fetal bovine serum was removed, 1 ml of fresh serum-free Lanford's medium was added to each well, and the cells were maintained in the CO2 incubator. The inside of the CO2 incubator used in the present invention was maintained at 37° C. in an atmosphere of 5% […] saturated with vapor.
10 μl of the sample was electrophoresed on polyacrylamide gel, and blotted onto PVDF transfer membrane.

**Q.** With Cc1ccc2cc3c(ccc4ccccc43)c3c2c1CC3 [3-methylcholanthrene] as the molecule, how does the “ethoxyresorfin dealkylation activity during continued addition” value (CYP1A; 1 μmol/L, added for three days) read?
**A.** gradually decreased

**Q.** What about the “time of maximum ethoxyresorfin dealkylation activity” value (CYP1A; 1 μmol/L, added for three days) of the same molecule?
**A.** one day after 3-methylcholanthrene was added

**Q.** What about the “ethoxyresorfin dealkylation activity after addition was stopped” value (CYP1A; after three days of 1 μmol/L) of the same molecule?
**A.** returned to their original state prior to the addition of the compounds in a day

**Q.** And the “production of 7-hydroxycoumarin, 7-hydroxycoumarin glucronide and 7-hydroxycoumarin sulfate” value [1]?
**A.** increases

**Q.** And the “CYP1A1/2 expression (western blotting)” value (CYP1A1/2)?
**A.** increased

**Q.** Which “production of 7-hydroxycoumarin, 7-hydroxycoumarin glucronide and 7-hydroxycoumarin sulfate” value [1] does the source give for c1ccc2cc3c(ccc4ccccc43)cc2c1 [benz[a]anthracene] here?
**A.** increases

**Q.** And the “CYP1A1/2 expression (western blotting)” value (CYP1A1/2)?
**A.** increased

**Q.** Which results are given for Clc1ccccc1C(c1ccccc1)(c1ccccc1)n1ccnc1 [clotrimazole]?
**A.** CYP3A mRNA level, concentration-dependence of induction (CYP3A mRNA): increase of the mRNA level was observed; testosterone hydroxylation activity, concentration-dependence of induction (CYP3A; HH-110, different concentrations): increase of the testosterone hydroxylation activity was not observed

**Q.** C[C@]12CCC(=O)C=C1CC[C@@H]1[C@@H]2[C@@H](O)C[C@@]2(C)[C@H]1CC[C@]2(O)C(=O)CO [hydrocortisone] was tested. Which “effect of medium component on maintenance of testosterone hydroxylation activity” value ([2]; HH-110, hydrocortisone-free vs conventional Landford's medium) did it give?
**A.** essential

**Q.** Which results are given for CCC1(c2ccccc2)C(=O)NC(=O)NC1=O [phenobarbital]?
**A.** CYP3A4 expression (western blotting) (CYP3A4): not marked; CYP 3A mRNA (CYP3A/β-actin) (CYP3A mRNA): Increases; day of maximum testosterone hydroxylation activity after addition (CYP3A; HH-110, rifampicin 10 μmol/L, phenobarbital 1 mmol/L, loaded for four days): 4 days; testosterone hydroxylation activity (CYP3A; five donors (HH-018, HH-022, HH-029, HH-110, HH-118), rifampicin 10 μmol/L, phenobarbital 1 mmol/L, four days): Increases

**Q.** C[C@]12C=CC(=O)C=C1CC[C@@H]1[C@@H]2[C@@H](O)C[C@@]2(C)[C@H]1CC[C@]2(O)C(=O)CO [predonisolone] was tested. Which “induction of testosterone hydroxylation activity with glucocorticoid instead of hydrocortisone in medium” value ([2]; HH-110, 1 μmol/L in medium, rifampicin 10 μmol/L for three days) did it give?
**A.** can be observed

**Q.** For cholera toxin, which “effect of medium component on induction of testosterone hydroxylation activity” value [2] is on record?
**A.** enhancing factors

B1: Prolactin: component of Landford's medium (protein, UniProt P01239 31-229, looked up)
Prolactin: TPVCPNGPGNCQVSLRDLFDRAVMVSHYIHDLSSEMFNEFDKRYAQGKGFITMALNSCHTSSLPTPEDKEQAQQTHHEVLMSLILGLLRSWNDPLYHLVTEVRGMKGAPDAILSRAIEIEEENKRLLEGMEMIFGQVIPGAKETEPYPVWSGLPSLQTKDEDARYSAFYNLLHCLRRDSSKIDTYLKLLNCRIIYNNNC
**Q.** With B1 as the molecule, how does the “effect of medium component on induction of testosterone hydroxylation activity” value ([2]; HH-110, component-free vs conventional Landford's medium, induction by rifampicin) read?
**A.** enhancing factors
